Reference: ChEMBL document CHEMBL1152405, “Bis-anthracenyl isoxazolyl amides have enhanced anticancer activity” (Bioorg Med Chem Lett, 2009)

Legend:
BT-549 = test: Growth inhibition of human BT549 cells at 10 uM after 24 hrs by MTT assay relative to control; type: functional; set-up: scale not given: the % may be the effect or the level left
IGROV-1 = test: Growth inhibition of human IGROV1 cells at 10 uM after 24 hrs by MTT assay relative to control; type: functional; set-up: scale not given: the % may be the effect or the level left
SF-295 = test: Growth inhibition of human SF295 cells at 10 uM after 24 hrs by MTT assay relative to control; type: functional; set-up: scale not given: the % may be the effect or the level left
786-0 = test: Growth inhibition of human 786-0 cells at 10 uM after 24 hrs by MTT assay relative to control; type: functional; set-up: scale not given: the % may be the effect or the level left
MCF7 = test: Growth inhibition of human MCF7 cells at 10 uM after 24 hrs by MTT assay relative to control; type: functional; set-up: scale not given: the % may be the effect or the level left
SK-MEL-28 = test: Growth inhibition of human SK-MEL-28 cells at 10 uM after 24 hrs by MTT assay relative to control; type: functional; set-up: scale not given: the % may be the effect or the level left
EKVX = test: Growth inhibition of human EKVX cells at 10 uM after 24 hrs by MTT assay relative to control; type: functional; set-up: scale not given: the % may be the effect or the level left
SR = test: Growth inhibition of human SR cells at 10 uM after 24 hrs by MTT assay relative to control; type: functional; set-up: scale not given: the % may be the effect or the level left
Malme-3M = test: Growth inhibition of human MALME-3M cells at 10 uM after 24 hrs by MTT assay relative to control; type: functional; set-up: scale not given: the % may be the effect or the level left
KM12 = test: Growth inhibition of human KM12 cells at 10 uM after 24 hrs by MTT assay relative to control; type: functional; set-up: scale not given: the % may be the effect or the level left
ACHN = test: Growth inhibition of human ACHN cells at 10 uM after 24 hrs by MTT assay relative to control; type: functional; set-up: scale not given: the % may be the effect or the level left
[1] = Growth inhibition of human Hs 578T cells at 10 uM after 24 hrs by MTT assay relative to control; type: functional; set-up: scale not given: the % may be the effect or the level left
UACC-257 = test: Growth inhibition of human UACC257 cells at 10 uM after 24 hrs by MTT assay relative to control; type: functional; set-up: scale not given: the % may be the effect or the level left
MDA-MB-435 = test: Growth inhibition of human MDA-MB-435 cells at 10 uM after 24 hrs by MTT assay relative to control; type: functional; set-up: scale not given: the % may be the effect or the level left
SNB-19 [2] = test: Antitumor activity against human SNB19 cells after 24 hrs; type: functional, cell-based; settings: SNB-19, 24 h
HOP-92 = test: Growth inhibition of human HOP92 cells at 10 uM after 24 hrs by MTT assay relative to control; type: functional; set-up: scale not given: the % may be the effect or the level left
OVCAR-3 = test: Growth inhibition of human OVCAR-3 cells at 10 uM after 24 hrs by MTT assay relative to control; type: functional; set-up: scale not given: the % may be the effect or the level left
SNB-19 [3] = test: Growth inhibition of human SNB19 cells at 10 uM after 24 hrs by MTT assay relative to control; type: functional; set-up: scale not given: the % may be the effect or the level left
A498 = test: Growth inhibition of human A498 cells at 10 uM after 24 hrs by MTT assay relative to control; type: functional; set-up: scale not given: the % may be the effect or the level left
NCI/ADR-RES = test: Growth inhibition of human NCI/ADR-RES cells at 10 uM after 24 hrs by MTT assay relative to control; type: functional; set-up: scale not given: the % may be the effect or the level left
SF-539 = test: Growth inhibition of human SF539 cells at 10 uM after 24 hrs by MTT assay relative to control; type: functional; set-up: scale not given: the % may be the effect or the level left
NCI-H460 = test: Growth inhibition of human NCI-H460 cells at 10 uM after 24 hrs by MTT assay relative to control; type: functional; set-up: scale not given: the % may be the effect or the level left
CAKI-1 = test: Growth inhibition of human Caki1 cells at 10 uM after 24 hrs by MTT assay relative to control; type: functional; set-up: scale not given: the % may be the effect or the level left
SK-MEL-5 = test: Growth inhibition of human SK-MEL-5 cells at 10 uM after 24 hrs by MTT assay relative to control; type: functional; set-up: scale not given: the % may be the effect or the level left
M14 = test: Growth inhibition of human M14 cells at 10 uM after 24 hrs by MTT assay relative to control; type: functional; set-up: scale not given: the % may be the effect or the level left
DU-145 = test: Growth inhibition of human DU145 cells at 10 uM after 24 hrs by MTT assay relative to control; type: functional; set-up: scale not given: the % may be the effect or the level left
SF-268 = test: Growth inhibition of human SF268 cells at 10 uM after 24 hrs by MTT assay relative to control; type: functional; set-up: scale not given: the % may be the effect or the level left
UO-31 = test: Growth inhibition of human UO31 cells at 10 uM after 24 hrs by MTT assay relative to control; type: functional; set-up: scale not given: the % may be the effect or the level left
COLO 205 = test: Growth inhibition of human COLO205 cells at 10 uM after 24 hrs by MTT assay relative to control; type: functional; set-up: scale not given: the % may be the effect or the level left
U-251 = test: Growth inhibition of human U251 cells at 10 uM after 24 hrs by MTT assay relative to control; type: functional; set-up: scale not given: the % may be the effect or the level left
HCC 2998 = test: Growth inhibition of human HCC2998 cells at 10 uM after 24 hrs by MTT assay relative to control; type: functional; set-up: scale not given: the % may be the effect or the level left
SK-OV-3 = test: Growth inhibition of human SKOV3 cells at 10 uM after 24 hrs by MTT assay relative to control; type: functional; set-up: scale not given: the % may be the effect or the level left
OVCAR-5 = test: Growth inhibition of human OVCAR5 cells at 10 uM after 24 hrs by MTT assay relative to control; type: functional; set-up: scale not given: the % may be the effect or the level left
TK-10 = test: Growth inhibition of human TK10 cells at 10 uM after 24 hrs by MTT assay relative to control; type: functional; set-up: scale not given: the % may be the effect or the level left
SK-MEL-2 = test: Growth inhibition of human SK-MEL-2 cells at 10 uM after 24 hrs by MTT assay relative to control; type: functional; set-up: scale not given: the % may be the effect or the level left
HCT-116 = test: Growth inhibition of human HCT116 cells at 10 uM after 24 hrs by MTT assay relative to control; type: functional; set-up: scale not given: the % may be the effect or the level left
OVCAR-4 = test: Growth inhibition of human OVCAR4 cells at 10 uM after 24 hrs by MTT assay relative to control; type: functional; set-up: scale not given: the % may be the effect or the level left
T47D = test: Growth inhibition of human T47D cells at 10 uM after 24 hrs by MTT assay relative to control; type: functional; set-up: scale not given: the % may be the effect or the level left
HT-29 = test: Growth inhibition of human HT-29 cells at 10 uM after 24 hrs by MTT assay relative to control; type: functional; set-up: scale not given: the % may be the effect or the level left
SN12C = test: Growth inhibition of human SN12C cells at 10 uM after 24 hrs by MTT assay relative to control; type: functional; set-up: scale not given: the % may be the effect or the level left
PC-3 = test: Growth inhibition of human PC3 cells at 10 uM after 24 hrs by MTT assay relative to control; type: functional; set-up: scale not given: the % may be the effect or the level left
HCT-15 = test: Growth inhibition of human HCT15 cells at 10 uM after 24 hrs by MTT assay relative to control; type: functional; set-up: scale not given: the % may be the effect or the level left
MDA-MB-231 = test: Growth inhibition of human MDA-MB-231 cells at 10 uM after 24 hrs by MTT assay relative to control; type: functional; set-up: scale not given: the % may be the effect or the level left
HOP-62 = test: Growth inhibition of human HOP62 cells at 10 uM after 24 hrs by MTT assay relative to control; type: functional; set-up: scale not given: the % may be the effect or the level left
NCI-H322M = test: Growth inhibition of human NCI-H322M cells at 10 uM after 24 hrs by MTT assay relative to control; type: functional; set-up: scale not given: the % may be the effect or the level left
[4] = Growth inhibition of human […] cells at 10 uM after 24 hrs by MTT assay relative to control; type: functional; set-up: scale not given: the % may be the effect or the level left
CCRF-CEM = test: Growth inhibition of human CCRF-CEM cells at 10 uM after 24 hrs by MTT assay relative to control; type: functional; set-up: scale not given: the % may be the effect or the level left
A549 = test: Growth inhibition of human A549 cells at 10 uM after 24 hrs by MTT assay relative to control; type: functional; set-up: scale not given: the % may be the effect or the level left
OVCAR-8 = test: Growth inhibition of human OVCAR8 cells at 10 uM after 24 hrs by MTT assay relative to control; type: functional; set-up: scale not given: the % may be the effect or the level left
HL-60(TB) = test: Growth inhibition of human HL-60(TB) cells at 10 uM after 24 hrs by MTT assay relative to control; type: functional; set-up: scale not given: the % may be the effect or the level left
K562 = test: Growth inhibition of human K562 cells at 10 uM after 24 hrs by MTT assay relative to control; type: functional; set-up: scale not given: the % may be the effect or the level left
MOLT-4 = test: Growth inhibition of human MOLT4 cells at 10 uM after 24 hrs by MTT assay relative to control; type: functional; set-up: scale not given: the % may be the effect or the level left
MDA-MB-468 = test: Growth inhibition of human MDA-MB-468 cells at 10 uM after 24 hrs by MTT assay relative to control; type: functional; set-up: scale not given: the % may be the effect or the level left
SW-620 = test: Growth inhibition of human SW620 cells at 10 uM after 24 hrs by MTT assay relative to control; type: functional; set-up: scale not given: the % may be the effect or the level left
LOX IMVI = test: Growth inhibition of human LOXIMVI cells at 10 uM after 24 hrs by MTT assay relative to control; type: functional; set-up: scale not given: the % may be the effect or the level left
UACC-62 = test: Growth inhibition of human UACC62 cells at 10 uM after 24 hrs by MTT assay relative to control; type: functional; set-up: scale not given: the % may be the effect or the level left
SNB-75 = test: Growth inhibition of human SNB75 cells at 10 uM after 24 hrs by MTT assay relative to control; type: functional; set-up: scale not given: the % may be the effect or the level left
NCI-H522 = test: Growth inhibition of human NCI-H522 cells at 10 uM after 24 hrs by MTT assay relative to control; type: functional; set-up: scale not given: the % may be the effect or the level left
NCI-H23 = test: Growth inhibition of human NCI-H23 cells at 10 uM after 24 hrs by MTT assay relative to control; type: functional; set-up: scale not given: the % may be the effect or the level left

## Cc1onc(-c2c3ccccc3c(Cl)c3ccccc23)c1C(=O)Nc1cc(C(=O)NCCCNC(=O)c2cc(NC(=O)c3c(-c4c5ccccc5c(Cl)c5ccccc45)noc3C)cn2C)n(C)c1
BT-549
  Activity: 126.28%
IGROV-1
  Activity: 64.38%
SF-295
  Activity: 109.86%
786-0
  Activity: 81.38%
MCF7
  Activity: 94.12%
SK-MEL-28
  Activity: 116.55%
EKVX
  Activity: 92.34%
SR
  Activity: 87.99%
Malme-3M
  Activity: 94.79%
KM12
  Activity: 96.11%
ACHN
  Activity: 79.36%
[1]
  Activity: 88.87%
UACC-257
  Activity: 86.93%
MDA-MB-435
  Activity: 85.56%
SNB-19 [2]
  IC50: > 100 µM
HOP-92
  Activity: 66.96%
OVCAR-3
  Activity: 88.29%
SNB-19 [3]
  Activity: 74.84%
A498
  Activity: 118.2%
NCI/ADR-RES
  Activity: 103.72%
SF-539
  Activity: 91.99%
NCI-H460
  Activity: 101.62%
CAKI-1
  Activity: 71.63%
SK-MEL-5
  Activity: 104%
M14
  Activity: 80.43%
DU-145
  Activity: 103.19%
SF-268
  Activity: 72.67%
UO-31
  Activity: 60.64%
COLO 205
  Activity: 76.5%
U-251
  Activity: 80.63%
HCC 2998
  Activity: 130.16%
SK-OV-3
  Activity: 100.87%
OVCAR-5
  Activity: 95.22%
TK-10
  Activity: 107.71%
SK-MEL-2
  Activity: 102.24%
HCT-116
  Activity: 88.45%
OVCAR-4
  Activity: 67.84%
T47D
  Activity: 76.21%
HT-29
  Activity: 93.17%
SN12C
  Activity: 106.37%
PC-3
  Activity: 76.05%
HCT-15
  Activity: 102.58%
MDA-MB-231
  Activity: 86.9%
HOP-62
  Activity: 87.7%
NCI-H322M
  Activity: 105.3%
[4]
  Activity: 78.11%
CCRF-CEM
  Activity: 84.24%
A549
  Activity: 86.45%
OVCAR-8
  Activity: 88.63%
HL-60(TB)
  Activity: 160.8%
K562
  Activity: 98.76%
MOLT-4
  Activity: 91.53%
MDA-MB-468
  Activity: 92.57%
SW-620
  Activity: 109.27%
LOX IMVI
  Activity: 82.59%
UACC-62
  Activity: 76.22%
SNB-75
  Activity: 33.5%
NCI-H522
  Activity: 76.93%
NCI-H23
  Activity: 105.33%
